In paper PMC9402538, “Rational design of a sensitivity-enhanced tracer for discovering efficient APC–Asef inhibitors” (Nature Communications, 2022):
Several values for one entry are separate records, joined by “and”; a condition that tells them apart may be missing. Equal values may be shown once. Read-outs that look alike come from different tables or passages of the source. Where a SMILES comes first, the peptide text is derived from it. The star is where a group is joined. Thiophene2carbonyl = O=C(c1cccs1)*; X2 = O=C(c1cncs1)*

Tests used:
APC = target: T1, APC (Homo sapiens, UniProt P25054); experiment: FP competitive assay using tracer 1; type: binding; details: for FP(mp): Tracer 1, triplicate raw readings
T1 sequence (P25054 303-739): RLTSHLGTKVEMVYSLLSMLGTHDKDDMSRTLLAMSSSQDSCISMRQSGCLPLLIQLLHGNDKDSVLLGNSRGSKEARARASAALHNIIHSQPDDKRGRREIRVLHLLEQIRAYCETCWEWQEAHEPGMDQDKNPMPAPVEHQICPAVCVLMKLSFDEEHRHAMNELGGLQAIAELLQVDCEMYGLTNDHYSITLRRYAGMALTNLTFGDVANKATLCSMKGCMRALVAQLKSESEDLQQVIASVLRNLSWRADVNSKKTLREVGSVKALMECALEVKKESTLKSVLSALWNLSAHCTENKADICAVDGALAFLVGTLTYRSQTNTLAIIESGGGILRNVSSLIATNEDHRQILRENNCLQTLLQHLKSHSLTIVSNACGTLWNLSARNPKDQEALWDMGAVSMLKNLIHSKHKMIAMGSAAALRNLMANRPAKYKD
Method: In our previous study, we established an FP assay for screening APC–Asef inhibitors using FITC-labeled tracer 1 (Ac–^176[…][FITC]^195–NH2)[16]. […]. However, their Kd values measured by isothermal titration calorimetry (ITC) actually vary up to more than 20 times[16],[17]. […].
FITC-labeled tracer peptides were obtained from Changzhou Kanglong Biotech Ltd. (Changzhou, Jiangsu, China). […]. The FP signal changes upon tracer binding were measured after 1.5 h of incubation using a Synergy neo microplate reader (BioTek Instruments, Inc.) and plotted against the protein concentration. The corresponding EC50 values were generated by fitting the curves with a nonlinear regression model. […]. To make a working solution, APC (303–739) was diluted in FP buffer (50 mM HEPES, pH 7.5, 300 mM NaCl, 1 mM EDTA, 1 mM DTT). […] The FP signals were measured after 1.5 h of incubation at room temperature using a Synergy neo microplate reader. Three controls were included on each plate, i.e., blank (without protein and tracer), 100% inhibition (free tracer only), and 0% inhibition (protein/tracer complex only) controls. All experiments were performed in triplicate. The IC50 values of peptides were calculated by nonlinear regression analysis using GraphPad Prism 7.0 software.

APC (303–739) = target: T2, APC (303–739) (Homo sapiens, UniProt P25054); experiment: FP competitive assay using tracer 7; type: binding; details: for FP(mp): Tracer 7, replicate wells
T2 sequence (P25054 303-739): T1 sequence (P25054 303-739)
Method: FITC-labeled tracer peptides were obtained from Changzhou Kanglong Biotech Ltd. (Changzhou, Jiangsu, China). […]. The FP signal changes upon tracer binding were measured after 1.5 h of incubation using a Synergy neo microplate reader (BioTek Instruments, Inc.) and plotted against the protein concentration. The corresponding EC50 values were generated by fitting the curves with a nonlinear regression model. […]. To make a working solution, APC (303–739) was diluted in FP buffer (50 mM HEPES, pH 7.5, 300 mM NaCl, 1 mM EDTA, 1 mM DTT). The diluted APC protein (91 μL) was combined with a serial dilution of peptides (4 μL) and incubated at room temperature for 1 h, followed by the addition of 5 μL of 400 nM tracer 7. The FP signals were measured after 1.5 h of incubation at room temperature using a Synergy neo microplate reader. Three controls were included on each plate, i.e., blank (without protein and tracer), 100% inhibition (free tracer only), and 0% inhibition (protein/tracer complex only) controls. All experiments were performed in triplicate. The IC50 values of peptides were calculated by nonlinear regression analysis using GraphPad Prism 7.0 software.

| SMILES | FP(mp) (APC; Conc. 0.05 μM) | FP(mp) (APC; Conc. 0.10 μM) | FP(mp) (APC; Conc. 0.20 μM) | FP(mp) (APC; Conc. 0.39 μM) | FP(mp) (APC; Conc. 0.78 μM) | FP(mp) (APC; Conc. 1.56 μM) | FP(mp) (APC; Conc. 3.13 μM) | FP(mp) (APC; Conc. 6.25 μM) | FP(mp) (APC; Conc. 12.50 μM) | FP(mp) (APC; Conc. 25.00 μM) | FP(mp) (APC; Conc. 100.00 μM) | FP(mp) (APC; Conc. 200.00 μM) | FP(mp) (APC; Conc. 400.00 μM) | FP(mp) (APC (303–739); Conc. 0.0061 μM) | FP(mp) (APC (303–739); Conc. 0.0122 μM) | FP(mp) (APC (303–739); Conc. 0.0244 μM) | FP(mp) (APC (303–739); Conc. 0.05 μM) | FP(mp) (APC (303–739); Conc. 0.10 μM) | FP(mp) (APC (303–739); Conc. 0.20 μM) | FP(mp) (APC (303–739); Conc. 0.39 μM) | also measured |
| --- | --- | --- | --- | --- | --- | --- | --- | --- | --- | --- | --- | --- | --- | --- | --- | --- | --- | --- | --- | --- | --- |
| CC(C)C[C@H](NC(=O)[C@H](CO)NC(=O)[C@H](CCC(=O)O)NC(=O)CNC(=O)[C@H](C)NC(=O)c1cccs1)C(=O)N[C@@H](Cc1ccc(O)cc1)C(=O)N[C@@H](CCC(=O)O)C(N)=O [MAI-507] (Thiophene2carbonyl-AGESLYE-NH2) | 180 mp and 182 mp | 173 mp and 180 mp and 179 mp | 168 mp and 169 mp and 173 mp | 130 mp and 156 mp and 153 mp | 56 mp and 61 mp and 98 mp | 53 mp and 54 mp and 52 mp | 53 mp and 50 mp and 52 mp | 50 mp and 51 mp | 50 mp and 47 mp and 48 mp | 51 mp and 47 mp and 48 mp | 48 mp and 47 mp | 48 mp | 49 mp and 48 mp | 306 mp and 304 mp and 305 mp | 299 mp and 301 mp (2×) | 278 mp and 279 mp and 280 mp | 256 mp (2×) and 257 mp | 216 mp and 219 mp (2×) | 178 mp (2×) and 173 mp | 138 mp and 133 mp and 136 mp | IC50 (APC): 340 ± 120 nM; FP(mp) (APC; Conc. 50.00 μM): 49 mp and 47 mp and 48 mp; IC50 (APC (303–739); IC50(μM) Repeat 1, Repeat 1, Table 3 source data): 0.173 µM; IC50 (APC (303–739); IC50(μM) Repeat 2, Repeat 2, Table 3 source data): 0.162 µM; IC50 (APC (303–739); IC50(μM) Repeat 3, Repeat 3, Table 3 source data): 0.175 µM; IC50 (APC (303–739); IC50(μM) mean, mean of 3 repeats, Table 3 source data): 0.17 µM; IC50 (APC (303–739); IC50 ± SD, tracer 7, APC 25 nM, average of three independent experiments): 0.17 ± 0.007 µM; FP(mp) (APC (303–739); Conc. 0.78 μM): 107 mp and 99 mp and 101 mp; FP(mp) (APC (303–739); Conc. 1.56 μM): 89 mp and 77 mp and 80 mp; FP(mp) (APC (303–739); Conc. 3.13 μM): 75 mp and 72 mp (2×); FP(mp) (APC (303–739); Conc. 6.25 μM): 59 mp and 54 mp and 58 mp; FP(mp) (APC (303–739); Conc. 12.50 μM): 60 mp (2×) and 54 mp; FP(mp) (APC (303–739); Conc. 25.00 μM): 54 mp and 51 mp and 52 mp; FP(mp) (APC (303–739); Conc. 50.00 μM): 57 mp (2×) and 54 mp |
| CC(C)C[C@H](NC(=O)[C@H](CO)NC(=O)[C@H](CCC(=O)O)NC(=O)CNC(=O)[C@H](C)NC(=O)c1cncs1)C(=O)N[C@@H](Cc1ccc(O)cc1)C(=O)N[C@@H](CCC(=O)O)C(N)=O [MAI-508] (X2-AGESLYE-NH2) | 185 mp and 183 mp and 179 mp | 180 mp and 181 mp and 176 mp | 173 mp and 176 mp | 162 mp and 161 mp | 105 mp and 98 mp and 106 mp | 54 mp and 56 mp | 52 mp and 48 mp and 49 mp | 50 mp and 47 mp and 48 mp | 47 mp and 46 mp | 50 mp and 48 mp and 46 mp | 50 mp and 47 mp | 51 mp and 48 mp and 49 mp | 51 mp and 49 mp | 306 mp | 306 mp and 305 mp and 307 mp | 290 mp (2×) and 289 mp | 268 mp and 265 mp and 269 mp | 236 mp and 233 mp (2×) | 190 mp and 195 mp and 192 mp | 150 mp and 147 mp and 149 mp | IC50 (APC; Supplementary Table 4, read-out: IC50, Tracer 1): 480 ± 160 nM; IC50 (APC (303–739); Repeat 1, Table 3 source data, read-out: IC50(μM) Repeat 1): 0.221 µM; IC50 (APC (303–739); Repeat 2, Table 3 source data, read-out: IC50(μM) Repeat 2): 0.194 µM; IC50 (APC (303–739); Repeat 3, Table 3 source data, read-out: IC50(μM) Repeat 3): 0.241 µM; FP(mp) (APC (303–739); Conc. 0.78 μM): 113 mp (2×) and 114 mp; FP(mp) (APC (303–739); Conc. 1.56 μM): 85 mp and 90 mp and 86 mp; FP(mp) (APC (303–739); Conc. 3.13 μM): 73 mp and 71 mp and 74 mp; FP(mp) (APC (303–739); Conc. 6.25 μM): 65 mp and 60 mp and 61 mp; FP(mp) (APC (303–739); Conc. 12.50 μM): 61 mp and 56 mp and 59 mp; FP(mp) (APC (303–739); Conc. 25.00 μM): 52 mp and 55 mp and 57 mp; FP(mp) (APC (303–739); Conc. 50.00 μM): 58 mp and 50 mp and 54 mp; IC50 (APC (303–739); mean of 3 repeats, Table 3 source data, read-out: IC50(μM) mean): 0.219 µM |
